In patent US9266876B2 (Actelion Pharmaceuticals Ltd., priority 2012, dated 2016):

Assays:
CXCR3 = CXCR3 (Homo sapiens (Human), UniProt P49682); assay: Receptor internalization assay; assay type: cell-based; details: human whole blood; final CXCL10 concentration 9 nM; 30 min 37° C.; CXCR3 cell surface expression on CD3 positive cells, flow cytometer; read-out: Internalization IC50
Procedure: B): Receptor Internalization Assay:
Stock solutions of test compounds are made up at a concentration of 10 mM in DMSO, and serially diluted in PBS containing 0.5% BSA to concentrations required for inhibition dose response curves. Diluted compounds are then mixed with an equal volume of CXCL10 (Peprotech) diluted in PBS. Anticoagulated venous human whole blood is added to the mixture, which is then incubated in a CO2 incubator at 37° C. to allow for ligand mediated receptor internalization (final CXCL10 concentration is 9 nM). After 30′, the blood is mixed with fluorescently labeled CXCR3 and CD3 specific antibodies (Becton Dickinson) and incubated on ice for 10 minutes. Samples are then mixed with BD FACS Lysing Solution (Becton Dickinson) in order to eliminate red blood cells. After washing the cells with PBS containing 0.5% BSA, the samples are then analyzed in a flow cytometer (FACS Canto II, Becton Dickinson). For data analysis using FACSDiva software (Becton Dickinson), the mean fluorescence corresponding to CXCR3 cell surface expression was determined on CD3 positive cells. The program GraphPad Prism is used to fit the data to a single site dose response curve and to calculate IC50 values.

human CXCR3A = human CXCR3A (Homo sapiens (Human), UniProt P49682); assay: FLIPR assay; assay type: cell-based; details: CHO-K1 cells expressing the human CXCR3A coupled to Galpha(16); CXCL10 agonist 20 nM; Fluo-4-AM fluorescence; mean values if determined several times
Chain of human CXCR3A (P49682 whole entry): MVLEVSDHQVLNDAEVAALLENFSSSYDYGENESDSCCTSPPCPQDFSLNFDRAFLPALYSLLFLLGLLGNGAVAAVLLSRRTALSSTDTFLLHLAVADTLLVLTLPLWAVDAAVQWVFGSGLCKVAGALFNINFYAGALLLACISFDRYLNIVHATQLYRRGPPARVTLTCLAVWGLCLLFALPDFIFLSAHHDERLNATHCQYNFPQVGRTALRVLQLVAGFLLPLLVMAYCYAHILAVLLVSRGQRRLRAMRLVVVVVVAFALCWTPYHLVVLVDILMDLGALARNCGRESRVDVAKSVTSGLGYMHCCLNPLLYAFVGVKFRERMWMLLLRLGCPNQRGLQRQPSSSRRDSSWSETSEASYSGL
Procedure: The bioactivity of compounds is tested in a fluorometric imaging plate reader (FLIPR: Molecular Devices) using engineered CHO-K1 cells expressing the human CXCR3A coupled to a G protein (Galpha(16)). Cells are plated the day prior to bioassay in F12 medium supplemented with 10% FBS and G418 and hygromycin antibiotics to maintain recombinant selection. At the day of bioassay, cells are washed and dye loaded for one hour with Fluo-4-AM (Invitrogen) in Hanks Balanced Salt Solution (Invitrogen), buffered with 20 mM Hepes at pH 7.4 and sodium bicarbonate (0.015%), containing 5 mM probenecid. […] Cells are washed free of excess dye and 60 microliter of wash buffer is added. Stock solutions of test compounds are made up at a concentration of 10 mM in DMSO, and serially diluted in dilution buffer to concentrations required for inhibition dose response curves. After a 10 minute incubation period at 37° C., 10 microliters of each compound dilution are transferred from a compound plate to the plate containing the recombinant cells in the FLIPR instrument according to the manufacturer's instructions. Following basal readings, 10 microliter CXCL10 agonist at a concentration of 20 nM (from Peprotech) is added, again using the FLIPR instrument. Changes in fluorescence are monitored before and after addition of the test compounds. Emission peak values above base level after CXCL10 addition are exported after base line subtraction. The program XLfit is used to fit the data to a single site dose response curve and to calculate IC50 values.

Chain of CXCR3 (P49682 whole entry): as above

| Structure (SMILES) | IC50 (CXCR3) [nM] | IC50 (human CXCR3A) [nM] |
| --- | --- | --- |
| CC(O)c1nc(-c2nc3ccccc3[nH]2)c(N2CCN(C(=O)Cn3ccc4cccnc43)CC2)s1 (racemic) [Example 43, rac-1-{4-[4-(1H-Benzoimidazol-2-yl)-2-(1-hydroxy-ethyl)-thiazol-5-yl]-piperazin-1-yl}-2-pyrrolo[2,3-b]pyridin-1-yl-ethanone] | 4090 | 55 |
| Cc1nc2ccccc2n1CC(=O)N1CCN(c2scnc2-c2nc3ccccc3[nH]2)CC1 [Example 2, 1-{4-[4-(1H-Benzoimidazol-2-yl)-thiazol-5-yl]-piperazin-1-yl}-2-(2-methyl-benzoimidazol-1-yl)-ethanone] | 3360 | 198 |
| C[C@@H]1CN(c2scnc2-c2nc3ccccc3[nH]2)CCN1C(=O)Cc1cn(C)c2ccccc12 [Example 125, 1-{(R)-4-[4-(1H-Benzoimidazol-2-yl)-thiazol-5-yl]-2-methyl-piperazin-1-yl}-2-(1-methyl-1H-indol-3-yl)-ethanone] |  | 71 |
| COc1ccc2[nH]cc(CC(=O)N3CCN(c4scnc4-c4nc5ccccc5[nH]4)C[C@H]3C)c2c1 [Example 126, 1-{(R)-4-[4-(1H-Benzoimidazol-2-yl)-thiazol-5-yl]-2-methyl-piperazin-1-yl}-2-(5-methoxy-1H-indol-3-yl)-ethanone] |  | 68 |
| C[C@@H]1CN(c2scnc2-c2nc3ccccc3[nH]2)CCN1C(=O)Cc1c[nH]c2ccc(Cl)cc12 [Example 127, 1-{(R)-4-[4-(1H-Benzoimidazol-2-yl)-thiazol-5-yl]-2-methyl-piperazin-1-yl}-2-(5-chloro-1H-indol-3-yl)-ethanone] |  | 490 |
| C[C@@H]1CN(c2scnc2-c2nc3ccccc3[nH]2)CCN1C(=O)Cc1nc2cc(Cl)ccc2[nH]1 [Example 129, 1-{(R)-4-[4-(1H-Benzoimidazol-2-yl)-thiazol-5-yl]-2-methyl-piperazin-1-yl}-2-(5-chloro-1H-benzoimidazol-2-yl)-ethanone] |  | 109 |
| C[C@@H]1CN(c2scnc2-c2nc3ccccc3[nH]2)CCN1C(=O)Cc1csc2ccc(Cl)cc12 [Example 134, 1-{(R)-4-[4-(1H-Benzoimidazol-2-yl)-thiazol-5-yl]-2-methyl-piperazin-1-yl}-2-(5-chloro-benzo[b]thiophen-3-yl)-ethanone] |  | 115 |
| COc1ccc2c(CC(=O)N3CCN(c4scnc4-c4nc5ccccc5[nH]4)C[C@H]3C)coc2c1 [Example 135, 1-{(R)-4-[4-(1H-Benzoimidazol-2-yl)-thiazol-5-yl]-2-methyl-piperazin-1-yl}-2-(6-methoxy-benzofuran-3-yl)-ethanone] |  | 88 |
| C[C@@H]1CN(c2scnc2-c2nc3ccccc3[nH]2)CCN1C(=O)Cn1cccc2oc(=O)nc1-2 [Example 156, 4-(2-{(R)-4-[4-(1H-Benzoimidazol-2-yl)-thiazol-5-yl]-2-methyl-piperazin-1-yl}-2-oxo-ethyl)-4H-oxazolo[4,5-b]pyridin-2-one] |  | 64 |
| C[C@@H]1CN(c2sc(CCC(=O)O)nc2-c2nc3ccccc3[nH]2)CCN1C(=O)Cn1ccc2cccnc21 [Example 224, 3-{4-(1H-Benzoimidazol-2-yl)-5-[(R)-3-methyl-4-(2-pyrrolo[2,3-b]pyridin-1-yl-acetyl)-piperazin-1-yl]-thiazol-2-yl}-propionic acid] |  | 100 |
| O=C(Cn1cnc2cccnc21)N1CCN(c2ncsc2-c2nc3ccccc3[nH]2)CC1 [compound 114, 1-{4-[5-(1H-Benzoimidazol-2-yl)-thiazol-4-yl]-piperazin-1-yl}-2-imidazo[4,5-b]pyridin-3-yl-ethanone, reference compound] |  | 2990 |

These reach a lower IC50 (human CXCR3A). Values come first.

| IC50 (CXCR3) [nM] | IC50 (human CXCR3A) [nM] | Structure (SMILES) |
| --- | --- | --- |
| 3080 | 30 | O=C(Cn1cnc2ccccc21)N1CCN(c2scnc2-c2nc3ccccc3[nH]2)CC1 [Example 1, 2-Benzoimidazol-1-yl-1-{4-[4-(1H-benzoimidazol-2-yl)-thiazol-5-yl]-piperazin-1-yl}-ethanone] |
| 1200 | 15 | Cn1c(=O)n(CC(=O)N2CCN(c3scnc3-c3nc4ccccc4[nH]3)CC2)c2ccccc21 [Example 3, 1-(2-{4-[4-(1H-Benzoimidazol-2-yl)-thiazol-5-yl]-piperazin-1-yl}-2-oxo-ethyl)-3-methyl-1,3-dihydro-benzoimidazol-2-one] |
| 2610 | 15 | O=C(Cn1ccc2ccccc21)N1CCN(c2scnc2-c2nc3ccccc3[nH]2)CC1 [Example 4, 1-{4-[4-(1H-Benzoimidazol-2-yl)-thiazol-5-yl]-piperazin-1-yl}-2-indol-1-yl-ethanone] |
|  | 10 | C[C@@H]1CN(c2scnc2-c2nc3ccccc3[nH]2)CCN1C(=O)Cc1c[nH]c2ccccc12 [Example 124, 1-{(R)-4-[4-(1H-Benzoimidazol-2-yl)-thiazol-5-yl]-2-methyl-piperazin-1-yl}-2-(1H-indol-3-yl)-ethanone] |
|  | 47 | C[C@@H]1CN(c2scnc2-c2nc3ccccc3[nH]2)CCN1C(=O)Cc1c[nH]c2ccc(F)cc12 [Example 128, 1-{(R)-4-[4-(1H-Benzoimidazol-2-yl)-thiazol-5-yl]-2-methyl-piperazin-1-yl}-2-(5-fluoro-1H-indol-3-yl)-ethanone] |
|  | 8 | Cc1ccc2onc(CC(=O)N3CCN(c4scnc4-c4nc5ccccc5[nH]4)C[C@H]3C)c2c1 [Example 131, 1-{(R)-4-[4-(1H-Benzoimidazol-2-yl)-thiazol-5-yl]-2-methyl-piperazin-1-yl}-2-(5-methyl-benzo[d]isoxazol-3-yl)-ethanone] |
|  | 6 | C[C@@H]1CN(c2scnc2-c2nc3ccccc3[nH]2)CCN1C(=O)Cc1csc2ccccc12 [Example 133, 2-Benzo[b]thiophen-3-yl-1-{(R)-4-[4-(1H-benzoimidazol-2-yl)-thiazol-5-yl]-2-methyl-piperazin-1-yl}-ethanone] |
|  | 26 | C[C@@H]1CN(c2scnc2-c2nc3ccccc3[nH]2)CCN1C(=O)Cc1ccc2c(c1)CCO2 [Example 136, 1-{(R)-4-[4-(1H-Benzoimidazol-2-yl)-thiazol-5-yl]-2-methyl-piperazin-1-yl}-2-(2,3-dihydro-benzofuran-5-yl)-ethanone] |
|  | 6 | C[C@@H]1CN(c2scnc2-c2nc3ccccc3[nH]2)CCN1C(=O)Cn1ccc2ncc(Cl)nc21 [Example 140, 1-{(R)-4-[4-(1H-Benzoimidazol-2-yl)-thiazol-5-yl]-2-methyl-piperazin-1-yl}-2-(3-chloro-pyrrolo[2,3-b]pyrazin-5-yl)-ethanone] |
|  | 11 | C[C@@H]1CN(c2scnc2-c2nc3cc(Cl)ccc3[nH]2)CCN1C(=O)CN1CCc2ccccc21 [Example 145, 1-{(R)-4-[4-(5-Chloro-1H-benzoimidazol-2-yl)-thiazol-5-yl]-2-methyl-piperazin-1-yl}-2-(2,3-dihydro-indol-1-yl)-ethanone] |
|  | 4 | C[C@@H]1CN(c2scnc2-c2nc3ccccc3[nH]2)CCN1C(=O)CN1C(=O)C(=O)c2ccccc21 [Example 157, 1-(2-{(R)-4-[4-(1H-Benzoimidazol-2-yl)-thiazol-5-yl]-2-methyl-piperazin-1-yl}-2-oxo-ethyl)-1H-indole-2,3-dione] |
|  | 30 | Cc1nc(C)n(CC(=O)N2CCN(c3sc(C(F)(F)F)nc3-c3nc4ccc(N5CCCC5=O)cc4[nH]3)C[C@H]2C)n1 [Example 235, 1-[2-(5-{(R)-4-[2-(3,5-Dimethyl-[1,2,4]triazol-1-yl)-acetyl]-3-methyl-piperazin-1-yl}-2-trifluoromethyl-thiazol-4-yl)-3H-benzoimidazol-5-yl]-pyrrolidin-2-one] |
